Assay results as given in US8957108B2, “Use of 5,6-dimethylxanthenone-4-acetic acid as an antiviral agent” (University of Maryland, Baltimore, priority 2006, dated 2015).

Legend:
peritoneal macrophages = experiment: Quantitative real-time PCR of cytokine mRNA in murine peritoneal macrophages
murine colon tumors = settings: mouse; cited from earlier work
macrophages = experiment: Expression of LPS-inducible early genes and IFN production in macrophages; type: cell-based, mouse
Source text: Because all of the cellular activities listed above can be performed by another ubiquitous yet structurally diverse compound, the lipopolysaccharide (LPS) of Gram-negative bacteria, the ability of DMXAA to modulate the expression of a subset of well-characterized LPS-inducible early genes in macrophages was studied in an effort to further elucidate the mechanism of DMXAA action. DMXAA's ability to induce IFN production by macrophages and to modulate the expression of the genes that encode transcription factors IRF-1, IRF-2, and ICSBP members of the interferon regulatory factor (IRF) gene family was also studied. […] These genes are: TNF-α, IL-1β, IP-10, Type 2 Tumor Necrosis Factor Receptor (TNFR-2), D3, and D8.

Cc1ccc2c(=O)c3cccc(CC(=O)O)c3oc2c1C [DMXAA, 5,6-dimethylxanthenone-4-acetic acid]
induced IFN-β mRNA and protein in MyD88−/− macrophages (peritoneal macrophages; 2 h mRNA, 24 h protein): not significantly altered
induced TNF-α mRNA and protein in MyD88−/− macrophages (peritoneal macrophages; 2 h mRNA, 24 h protein): not significantly altered
response to restimulation with either LPS or DMXAA after pretreatment (peritoneal macrophages; 24 h pretreatment, restimulated 1 h): induces a state of refractoriness
TNF-α mRNA in the absence of TLR4 (peritoneal macrophages; TLR4−/− peritoneal macrophages, 2 h): induces TNF-α to wild-type levels
induction of IFN-β protein and IP-10 mRNA compared with LPS (peritoneal macrophages; murine macrophages): much more potent inducer
IFN-β steady-state mRNA relative to LPS (peritoneal macrophages; peritoneal exudate macrophages, 2 h, real-time PCR): ~10 fold
potency in vivo against murine colon tumors relative to FAA (murine colon tumors): 12 fold
TNF-α gene expression (macrophages): only low induction
expression of the genes encoding IP-10, D8, and D3 (macrophages): up-regulated to levels similar to those observed upon LPS induction
induction of TNFR-2 and IL-1β genes (macrophages): insignificant induction
induction of Type 1 Interferons (IFNs) (macrophages; mouse macrophages): extremely potent inducer
